Laboratory results: ChEMBL document CHEMBL1140657, “SAR of a novel 'Anthranilamide Like' series of VEGFR-2, multi protein kinase inhibitors for the treatment of cancer” (Bioorg Med Chem Lett, 2007)
Several values for one entry are separate records, joined by “and”; a condition that tells them apart may be missing. Identical values can stand only once.

Experiments:
[1] = molecular target: Serine/threonine-protein kinase B-raf (Homo sapiens, UniProt P15056); experiment: Inhibition of b-Raf
[2] = molecular target: Mast/stem cell growth factor receptor Kit (Homo sapiens, UniProt P10721); experiment: Inhibition of human recombinant cKit by FRET assay
Sequence of Mast/stem cell growth factor receptor Kit (P10721 whole entry): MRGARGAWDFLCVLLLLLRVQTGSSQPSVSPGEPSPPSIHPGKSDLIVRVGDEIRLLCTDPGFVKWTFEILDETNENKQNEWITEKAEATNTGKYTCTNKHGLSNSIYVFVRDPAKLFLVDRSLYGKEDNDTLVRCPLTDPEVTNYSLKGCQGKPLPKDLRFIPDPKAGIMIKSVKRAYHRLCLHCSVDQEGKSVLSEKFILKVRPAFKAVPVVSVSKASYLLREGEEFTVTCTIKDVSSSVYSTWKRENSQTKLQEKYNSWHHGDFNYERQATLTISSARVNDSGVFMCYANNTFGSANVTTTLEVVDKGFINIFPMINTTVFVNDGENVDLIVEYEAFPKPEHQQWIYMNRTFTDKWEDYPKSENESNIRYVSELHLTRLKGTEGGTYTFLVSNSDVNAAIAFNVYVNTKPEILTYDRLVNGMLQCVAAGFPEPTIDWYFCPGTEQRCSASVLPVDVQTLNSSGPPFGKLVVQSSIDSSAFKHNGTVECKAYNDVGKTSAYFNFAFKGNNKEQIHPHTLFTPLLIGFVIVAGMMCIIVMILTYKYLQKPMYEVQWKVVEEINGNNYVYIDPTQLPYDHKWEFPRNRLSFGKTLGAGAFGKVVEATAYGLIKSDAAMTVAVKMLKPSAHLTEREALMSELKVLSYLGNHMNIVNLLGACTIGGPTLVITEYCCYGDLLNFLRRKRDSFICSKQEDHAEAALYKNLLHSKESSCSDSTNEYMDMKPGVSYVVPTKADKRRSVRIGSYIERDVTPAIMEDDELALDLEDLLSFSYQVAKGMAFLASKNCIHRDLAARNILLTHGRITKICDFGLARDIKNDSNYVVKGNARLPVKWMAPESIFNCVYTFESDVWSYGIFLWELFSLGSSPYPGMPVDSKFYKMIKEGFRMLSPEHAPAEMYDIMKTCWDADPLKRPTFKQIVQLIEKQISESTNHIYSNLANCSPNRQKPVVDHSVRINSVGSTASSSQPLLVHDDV

[3] = Volume of distribution at steady state in iv dosed ICR mouse; assay type: ADME, organism-based; details: in vivo, read-out: Vdss
NCI-H460 = experiment: Inhibition of tumor growth in human NCI-H460 NSCLC cells xenografted in athymic mouse at 50 mg/kg, po once daily after 9 days; assay type: functional; details: NCI-H460, 216 h
MDA-MB-231 = experiment: Inhibition of tumor growth in human MDA-MB-231 cells xenografted in athymic mouse at 50 mg/kg, po once daily after 9 days; assay type: functional; details: MDA-MB-231, 216 h
[4] = Cmax in ICR mouse at 25 mg/kg; assay type: ADME, organism-based; parameters: dose 25 mg/kg; details: in vivo
COLO 205 = experiment: Inhibition of tumor growth in human Colo205 cells xenografted in athymic mouse at 50 mg/kg, po once daily after 9 days; assay type: functional; details: COLO 205, 216 h
[5] = AUC (1 to 5 hrs) in ICR mouse; assay type: ADME, organism-based; parameters: time 1-5 hr; details: plasma
[6] = molecular target: Vascular endothelial growth factor receptor 2 (Homo sapiens, UniProt P35968); experiment: Inhibition of VEGFR2
Sequence of Vascular endothelial growth factor receptor 2 (P35968 whole entry): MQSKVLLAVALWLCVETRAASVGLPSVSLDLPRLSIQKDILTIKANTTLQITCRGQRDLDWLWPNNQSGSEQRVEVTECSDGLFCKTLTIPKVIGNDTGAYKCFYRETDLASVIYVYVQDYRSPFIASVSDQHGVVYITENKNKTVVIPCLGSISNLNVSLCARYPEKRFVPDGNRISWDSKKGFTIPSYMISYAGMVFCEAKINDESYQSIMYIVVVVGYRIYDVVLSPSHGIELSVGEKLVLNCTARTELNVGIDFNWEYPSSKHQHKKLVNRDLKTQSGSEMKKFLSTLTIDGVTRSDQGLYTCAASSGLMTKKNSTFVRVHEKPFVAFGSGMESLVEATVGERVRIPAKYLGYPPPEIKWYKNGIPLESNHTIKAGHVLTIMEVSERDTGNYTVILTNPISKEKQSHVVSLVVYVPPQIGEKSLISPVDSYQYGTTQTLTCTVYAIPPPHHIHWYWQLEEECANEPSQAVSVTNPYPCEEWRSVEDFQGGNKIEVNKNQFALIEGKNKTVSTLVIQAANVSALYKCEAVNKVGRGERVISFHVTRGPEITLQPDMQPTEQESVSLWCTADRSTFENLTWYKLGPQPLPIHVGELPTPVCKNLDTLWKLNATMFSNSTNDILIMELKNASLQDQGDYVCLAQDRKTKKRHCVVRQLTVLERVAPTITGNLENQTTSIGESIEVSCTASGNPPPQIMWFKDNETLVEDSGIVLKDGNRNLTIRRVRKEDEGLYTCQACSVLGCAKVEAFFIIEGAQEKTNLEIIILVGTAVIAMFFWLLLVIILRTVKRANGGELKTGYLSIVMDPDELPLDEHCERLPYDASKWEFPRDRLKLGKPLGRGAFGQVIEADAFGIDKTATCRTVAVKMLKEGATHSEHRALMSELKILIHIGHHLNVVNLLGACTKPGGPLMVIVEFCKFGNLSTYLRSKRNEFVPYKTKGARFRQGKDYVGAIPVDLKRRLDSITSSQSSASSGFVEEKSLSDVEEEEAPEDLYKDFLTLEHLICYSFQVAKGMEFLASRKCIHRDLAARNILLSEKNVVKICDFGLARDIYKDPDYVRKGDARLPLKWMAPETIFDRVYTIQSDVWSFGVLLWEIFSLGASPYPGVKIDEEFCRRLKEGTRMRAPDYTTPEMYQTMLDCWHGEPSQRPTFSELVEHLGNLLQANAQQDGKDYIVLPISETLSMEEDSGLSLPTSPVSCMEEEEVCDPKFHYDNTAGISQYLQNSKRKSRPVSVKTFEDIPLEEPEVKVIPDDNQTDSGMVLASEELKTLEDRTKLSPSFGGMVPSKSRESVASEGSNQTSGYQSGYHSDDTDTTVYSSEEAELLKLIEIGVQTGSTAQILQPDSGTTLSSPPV

[7] = AUC in ICR mouse at 25 mg/kg, po; assay type: ADME, organism-based; parameters: dose 25 mg/kg, route oral; details: plasma
[8] = Cmax in ICR mouse at 15 mg/kg; assay type: ADME, organism-based; parameters: dose 15 mg/kg; details: in vivo
[9] = AUC (0 to 5 hrs) in ICR mouse at 25 mg/kg, po; assay type: ADME, organism-based; parameters: time < 4 hr, dose 25 mg/kg, route oral; details: plasma

Sequence of Serine/threonine-protein kinase B-raf (P15056 whole entry): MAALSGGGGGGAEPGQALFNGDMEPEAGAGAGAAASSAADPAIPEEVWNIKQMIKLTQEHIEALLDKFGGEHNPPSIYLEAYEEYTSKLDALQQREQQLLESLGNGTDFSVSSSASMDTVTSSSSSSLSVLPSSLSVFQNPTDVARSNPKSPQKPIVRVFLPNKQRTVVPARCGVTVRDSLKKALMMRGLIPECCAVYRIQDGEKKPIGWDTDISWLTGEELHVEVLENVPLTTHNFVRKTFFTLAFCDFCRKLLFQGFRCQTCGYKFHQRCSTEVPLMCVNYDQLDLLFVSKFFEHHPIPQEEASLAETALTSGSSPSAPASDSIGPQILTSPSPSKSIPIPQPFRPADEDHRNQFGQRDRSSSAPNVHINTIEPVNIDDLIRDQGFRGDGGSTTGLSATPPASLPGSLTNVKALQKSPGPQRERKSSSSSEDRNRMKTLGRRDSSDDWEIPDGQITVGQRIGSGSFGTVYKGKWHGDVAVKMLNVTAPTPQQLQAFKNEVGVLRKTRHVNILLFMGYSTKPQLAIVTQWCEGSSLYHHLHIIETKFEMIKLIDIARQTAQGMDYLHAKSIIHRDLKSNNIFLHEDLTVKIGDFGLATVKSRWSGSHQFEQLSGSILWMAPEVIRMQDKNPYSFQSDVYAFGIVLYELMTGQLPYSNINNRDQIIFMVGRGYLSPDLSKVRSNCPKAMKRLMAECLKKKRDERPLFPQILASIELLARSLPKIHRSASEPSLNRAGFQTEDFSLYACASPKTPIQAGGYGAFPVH

Row | IC50 [1] | IC50 [2] | SMILES | also measured
1 | 221 nM | 17 nM | CS(=O)(=O)CCNC(=O)c1cc(CNc2ccccc2C(=O)Nc2ccc3c(c2)OC(F)(F)O3)ccn1 | 
2 | 497 nM | 38 nM | COCCNC(=O)c1cc(CNc2ccccc2C(=O)Nc2ccc3c(c2)OC(F)(F)O3)ccn1 | 
3 | 594 nM | 25 nM | CS(=O)(=O)Nc1cc(CNc2ccccc2C(=O)Nc2ccc3c(c2)OC(F)(F)O3)ccn1 | 
4 | 26 nM | 3 nM | CNc1nccc(CNc2ccccc2C(=O)Nc2ccc3c(c2)OC(F)(F)O3)n1 | 
5 | 397 nM | 18 nM | O=C(NCCO)c1cc(CNc2ccccc2C(=O)Nc2ccc3c(c2)OC(F)(F)O3)ccn1 | 
6 | 1030 nM | 19 nM | COCCCNC(=O)c1cc(CNc2ccccc2C(=O)Nc2ccc3c(c2)OC(F)(F)O3)ccn1 | 
7 | 1240 nM | 25 nM | CNC(=O)c1cc(CNc2ncsc2C(=O)Nc2ccc3c(c2)OC(F)(F)O3)ccn1 | 
8 |  | 5 nM | CNC(=O)Nc1ccc(CNc2ncsc2C(=O)Nc2ccc3c(c2)OC(F)(F)O3)cn1 | Vd [3]: 0.151 L/kg; inhibition in vivo at 50 mg/kg (NCI-H460): 70%; inhibition in vivo at 50 mg/kg (MDA-MB-231): 90%; Cmax [4]: 124 µM; inhibition in vivo at 50 mg/kg (COLO 205): 84%; AUC(0-t) [5]: 538 µM·h; IC50 [6]: 3 nM
9 | 165 nM | 4 nM | O=C(Nc1ccc2c(c1)OC(F)(F)O2)c1ccccc1NCc1ccnc(NCCOCCO)c1 | 
10 | 45 nM | 5 nM | CNC(=O)c1cc(CNc2ccccc2C(=O)Nc2ccc3c(c2)OC(F)(F)O3)ccn1 | AUC [7]: 40 µM·h
11 | 156 nM | 12 nM | COCCCNc1cc(CNc2ccccc2C(=O)Nc2ccc3c(c2)OC(F)(F)O3)ccn1 | 
12 |  | 12 nM | CNC(=O)Nc1ccc(CNc2c(C(=O)Nc3ccc4c(c3)OC(F)(F)C(F)(F)O4)cnn2C)cn1 | Cmax [8]: 6 µM; AUC(0-t) [5]: 19 µM·h; IC50 [6]: 43 nM
13 | 90 nM | 7 nM | CCNC(=O)Nc1cc(CNc2ccccc2C(=O)Nc2ccc3c(c2)OC(F)(F)O3)ccn1 | AUC(0-t) at 4 h [9]: > 400 µM·h
14 |  | 4 nM | CCNC(=O)Nc1ccc(CNc2ncsc2C(=O)Nc2ccc3c(c2)OC(F)(F)O3)cn1 | Vd [3]: 0.24 L/kg; inhibition in vivo at 50 mg/kg (NCI-H460): 79%; inhibition in vivo at 50 mg/kg (MDA-MB-231): 92%; Cmax [4]: 64 µM; inhibition in vivo at 50 mg/kg (COLO 205): 86%; AUC(0-t) [5]: 255 µM·h; IC50 [6]: 7 nM
15 | 34 nM | 2 nM | NC(=O)c1cc(CNc2ccccc2C(=O)Nc2ccc3c(c2)OC(F)(F)O3)ccn1 | 
16 | 333 nM | 25 nM | CCNC(=O)c1cc(CNc2ccccc2C(=O)Nc2ccc3c(c2)OC(F)(F)O3)ccn1 | 
17 | 138 nM | 58 nM | CCN(CC)CCNC(=O)c1cc(CNc2ccccc2C(=O)Nc2ccc3c(c2)OC(F)(F)O3)ccn1 | 
18 | 110 nM | 37 nM | N#Cc1cc(CNc2ccccc2C(=O)Nc2ccc3c(c2)OC(F)(F)O3)ccn1 | 
19 | 100 nM | 27 nM | NC(=S)c1cc(CNc2ccccc2C(=O)Nc2ccc3c(c2)OC(F)(F)O3)ccn1 | 
20 | 175 nM | 42 nM | CCN(CC)CCCNC(=O)c1cc(CNc2ccccc2C(=O)Nc2ccc3c(c2)OC(F)(F)O3)ccn1 | 
21 | 104 nM | 13 nM | COCCNc1cc(CNc2ccccc2C(=O)Nc2ccc3c(c2)OC(F)(F)O3)ccn1 | 
22 | 2560 nM | 95 nM | O=C(Nc1ccc2c(c1)OC(F)(F)C(F)(F)O2)c1ncsc1NCc1ccncc1 | 
23 | 24 nM | 5 nM | CNC(=O)Nc1cc(CNc2ccccc2C(=O)Nc2ccc3c(c2)OC(F)(F)O3)ccn1 | 
24 | 142 nM | 9 nM | O=C(Nc1ccc2c(c1)OC(F)(F)O2)c1ccccc1NCc1ccnc(NCCCO)c1 | 
25 | 112 nM | 8 nM | O=C(Nc1ccc2c(c1)OC(F)(F)O2)c1ccccc1NCc1ccnc(NCCO)c1 | 
26 | 6830 nM | 45 nM | O=C(NCCCN1CCOCC1)c1cc(CNc2ccccc2C(=O)Nc2ccc3c(c2)OC(F)(F)O3)ccn1 | 
27 | 100 nM | 3 nM | CNc1cc(CNc2ccccc2C(=O)Nc2ccc3c(c2)OC(F)(F)O3)ccn1 | 
28 | 349 nM | 50 nM | CN(C)c1nccc(CNc2ccccc2C(=O)Nc2ccc3c(c2)OC(F)(F)O3)n1 | 
29 | 634 nM and 274 nM | 4 nM and 1 nM | Nc1cc(CNc2ccccc2C(=O)Nc2ccc3c(c2)OC(F)(F)O3)ccn1 | 

Row | SMILES | IC50 [1] | IC50 [2] | also measured
30 | O=C(Nc1ccc2c(c1)OC(F)(F)O2)c1ccccc1NCc1ccnc(NCCCn2ccnc2)c1 | 101 nM | 20 nM | 
31 | CNC(=O)c1cc(CNc2ncsc2C(=O)Nc2ccc3c(c2)OC(F)(F)C(F)(F)O3)ccn1 | 192 nM | 12 nM | 
32 | CNC(=O)c1cc(CNc2c(C(=O)Nc3ccc4c(c3)OC(F)(F)O4)cnn2C)ccn1 | 199 nM | 11 nM | 
33 | CNC(=O)c1cc(CNc2ccsc2C(=O)Nc2ccc3c(c2)OC(F)(F)O3)ccn1 | 61 nM | 3 nM | 
34 | O=C(Nc1ccc2c(c1)OC(F)(F)O2)c1ccccc1NCc1ccnc(NCCc2cnc[nH]2)c1 | 146 nM | 23 nM | 
35 | CNC(=O)Nc1ccc(CNc2c(C(=O)Nc3ccc(SC(F)(F)F)cc3)cnn2C)cn1 | 154 nM | 17 nM | Cmax [8]: 3.6 µM; AUC(0-t) [5]: 11 µM·h; IC50 [6]: 62 nM
36 | CC(=O)Nc1cc(CNc2ccccc2C(=O)Nc2ccc3c(c2)OC(F)(F)O3)ccn1 | 5 nM | 1 nM | 
37 | O=C(NC1CC1)c1cc(CNc2ccccc2C(=O)Nc2ccc3c(c2)OC(F)(F)O3)ccn1 | 192 nM | 16 nM | 
38 | O=C(Nc1ccc2c(c1)OC(F)(F)C(F)(F)O2)c1ccccc1NCc1ccncc1 | 40 nM | 19 nM | AUC [7]: 6 µM·h
39 | O=C(NCc1ccccc1)Nc1cc(CNc2ccccc2C(=O)Nc2ccc3c(c2)OC(F)(F)O3)ccn1 | 232 nM | 48 nM | 
40 | O=C(Nc1ccccc1)Nc1cc(CNc2ccccc2C(=O)Nc2ccc3c(c2)OC(F)(F)O3)ccn1 | 39 nM | 87 nM | 
41 | O=C(Nc1ccc2c(c1)CCC2)Nc1cc(CNc2ccccc2C(=O)Nc2ccc3c(c2)OC(F)(F)O3)ccn1 | 64 nM | 240 nM | 
42 | O=C(Nc1ccc2c(c1)OC(F)(F)O2)c1ccccc1NCc1ccnc(C2=NCCN2)c1 | 153 nM | 72 nM | 
